Results published in ChEMBL document CHEMBL2216752, “Carnitine palmitoyltransferase (CPT) modulators: a medicinal chemistry perspective on 35 years of research” (J Med Chem, 2011).

How the values were obtained:
[1] = target: Carnitine O-palmitoyltransferase 1, muscle isoform (Rattus norvegicus) (UniProt Q63704); experiment: Maximal inhibition of CPT1B in rat muscle mitochondria; conditions: Muscle tissue
[2] = target: Carnitine O-palmitoyltransferase 1, liver isoform (Rattus norvegicus) (UniProt P32198); experiment: Maximal inhibition of CPT1A in rat liver mitochondria
Chain of Carnitine O-palmitoyltransferase 1, liver isoform (Rattus norvegicus) (P32198 whole entry, looked up, canonical isoform): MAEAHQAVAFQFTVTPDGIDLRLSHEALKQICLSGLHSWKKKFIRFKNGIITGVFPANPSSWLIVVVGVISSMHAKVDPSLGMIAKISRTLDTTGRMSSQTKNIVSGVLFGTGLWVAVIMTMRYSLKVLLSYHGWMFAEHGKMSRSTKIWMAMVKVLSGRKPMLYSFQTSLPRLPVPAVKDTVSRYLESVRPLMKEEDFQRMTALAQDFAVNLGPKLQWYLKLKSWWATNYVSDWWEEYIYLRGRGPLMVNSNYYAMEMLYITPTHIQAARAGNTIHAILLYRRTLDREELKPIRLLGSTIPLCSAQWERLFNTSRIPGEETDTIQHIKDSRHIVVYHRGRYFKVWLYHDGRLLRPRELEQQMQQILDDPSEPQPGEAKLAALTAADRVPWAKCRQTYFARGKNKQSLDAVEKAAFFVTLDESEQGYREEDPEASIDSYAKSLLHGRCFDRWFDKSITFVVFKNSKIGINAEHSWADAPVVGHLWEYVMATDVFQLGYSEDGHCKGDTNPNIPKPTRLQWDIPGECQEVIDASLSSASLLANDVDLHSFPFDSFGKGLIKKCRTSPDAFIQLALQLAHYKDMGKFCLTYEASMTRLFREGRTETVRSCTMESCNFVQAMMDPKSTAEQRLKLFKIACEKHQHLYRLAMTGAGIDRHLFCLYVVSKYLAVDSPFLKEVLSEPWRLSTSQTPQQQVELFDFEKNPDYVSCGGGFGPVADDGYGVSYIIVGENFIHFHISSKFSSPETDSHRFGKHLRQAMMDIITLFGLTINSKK

Chain of Carnitine O-palmitoyltransferase 1, muscle isoform (Rattus norvegicus) (Q63704 whole entry, canonical isoform): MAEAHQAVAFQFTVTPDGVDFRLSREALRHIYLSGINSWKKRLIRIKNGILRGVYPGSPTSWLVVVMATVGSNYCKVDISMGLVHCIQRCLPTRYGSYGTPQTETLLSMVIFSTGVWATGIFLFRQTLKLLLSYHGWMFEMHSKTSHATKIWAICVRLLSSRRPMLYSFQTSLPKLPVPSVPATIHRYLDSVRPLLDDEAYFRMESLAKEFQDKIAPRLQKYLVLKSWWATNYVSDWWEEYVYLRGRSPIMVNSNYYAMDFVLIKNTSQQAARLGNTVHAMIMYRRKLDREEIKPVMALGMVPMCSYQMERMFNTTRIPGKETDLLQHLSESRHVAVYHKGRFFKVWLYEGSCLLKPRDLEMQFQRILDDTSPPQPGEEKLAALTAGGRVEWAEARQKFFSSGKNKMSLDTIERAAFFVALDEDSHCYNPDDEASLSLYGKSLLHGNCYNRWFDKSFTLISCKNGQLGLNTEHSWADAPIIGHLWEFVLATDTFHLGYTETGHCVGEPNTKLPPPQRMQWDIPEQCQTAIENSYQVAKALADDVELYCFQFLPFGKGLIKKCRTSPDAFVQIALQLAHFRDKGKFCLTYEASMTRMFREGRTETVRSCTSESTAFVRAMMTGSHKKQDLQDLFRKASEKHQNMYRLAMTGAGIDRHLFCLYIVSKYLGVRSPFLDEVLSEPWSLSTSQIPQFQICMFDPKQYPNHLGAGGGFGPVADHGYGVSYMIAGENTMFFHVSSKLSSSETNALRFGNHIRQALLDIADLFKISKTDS

With `O=C(O)[C@@]1(CCCCCCOc2ccc([N+](=O)[O-])cc2[N+](=O)[O-])CO1` the Imax [1] was over 60 µM and the Imax [2] was 5 µM.
